Where only a bound is given, the exact number is not on record here.

The experiment deals with T1, human GLP-1R (Homo sapiens, UniProt P43220).
T1 construct: host or cells: HEK293
T1 sequence (P43220 24-463): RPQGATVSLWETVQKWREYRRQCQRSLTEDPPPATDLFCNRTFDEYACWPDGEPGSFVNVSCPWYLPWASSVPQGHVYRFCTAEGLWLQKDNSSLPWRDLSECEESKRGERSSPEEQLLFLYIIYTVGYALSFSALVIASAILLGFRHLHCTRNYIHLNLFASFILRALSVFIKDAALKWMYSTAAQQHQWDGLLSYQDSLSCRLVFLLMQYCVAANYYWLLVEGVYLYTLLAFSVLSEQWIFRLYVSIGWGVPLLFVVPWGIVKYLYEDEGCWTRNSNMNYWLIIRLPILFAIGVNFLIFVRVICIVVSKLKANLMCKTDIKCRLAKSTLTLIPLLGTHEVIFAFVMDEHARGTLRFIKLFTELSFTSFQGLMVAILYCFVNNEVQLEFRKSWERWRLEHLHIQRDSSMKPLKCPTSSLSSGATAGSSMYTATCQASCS
Description: GLP-1R cAMP assay (Example B1a, HTRF, 30 min at room temperature). The class given is cell-based. The conditions noted are these: cAMP accumulation in HEK293 expressing human GLP-1R, no BETP, 30 min room temperature (Method B1a, compounds ID 1-609), Table 1; read-out: EC50. In outline:
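Competitive HTRF read-out of cAMP after 30 min room-temperature stimulation, BETP absent, of human GLP-1R-HEK293 cells (1,000/well) in HEPES buffer with 500 μM IBMX and 0.1% BSA. Activation normalised to GLP-1(7-37) positive control. EC50 from 4-parameter non-linear regression.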
(cAMP levels reflect the balance of adenylyl cyclase and phosphodiesterase activity.)
For `Cc1cc(-n2nc3c(c2-n2ccn(-c4ccc5c(cnn5C)c4F)c2=O)[C@@H]2CC[C@H](C3)N2C(=O)c2cc3cc([C@@H]4COC(C)(C)C4)ccc3n2[C@@]2(c3noc(=O)[nH]3)C[C@@H]2C)cc(C)c1F` [Compound 425, 3-[(1S,2S)-1-[5-[(3R)-5,5-dimethyltetrahydrofuran-3-yl]-2-[(1S,8R)-4-(4-fluoro-3,5-dimethyl-phenyl)-3-[3-(4-fluoro-1-methyl-indazol-5-yl)-2-oxo-imidazol-1-yl]-4,5,11-triazatricyclo[6.2.1.02,6]undeca-2,5-diene-11-carbonyl]indol-1-yl]-2-methyl-cyclopropyl]-4H-1,2,4-oxadiazol-5-one], the EC50 was 292 nM.
Consider `Cc1cc(-n2nc3c(c2-n2ccn(-c4ccc5c(cnn5C)c4F)c2=O)[C@H]2CC[C@@H](C3)N2C(=O)c2cc3cc([C@@H]4CCOC5(CC5)C4)ccc3n2[C@@]2(c3noc(=O)[nH]3)C[C@H]2C)cc(C)c1F` [Compound 540, 3-((1S,2R)-1-(2-((4R,7S)-3-(3-(4-fluoro-1-methyl-1H-indazol-5-yl)-2-oxo-2,3-dihydro-1H-imidazol-1-yl)-2-(4-fluoro-3,5-dimethylphenyl)-2,4,5,6,7,8-hexahydro-4,7-epiminocyclohepta [c]pyrazole-9-carbonyl)-5-((R)-4-oxaspiro[2.5]octan-7-yl)-1H-indol-1-yl)-2-methylcyclopropyl)-1,2,4-oxadiazol-5 (4H)-one], for which the EC50 is at least 10000 nM.
As for `Cc1cc(-n2nc3c(c2-n2ccn(-c4ccc5c(cnn5C)c4F)c2=O)[C@@H]2COC[C@H](C3)N2C(=O)c2cc3cc(C4CCOCC4)ccc3n2[C@@]2(c3noc(=O)[nH]3)C[C@@H]2C)cc(C)c1F` [Compound 221, 3-((1S,2S)-1-(2-((4R,8S)-3-(3-(4-fluoro-1-methyl-1H-indazol-5-yl)-2-oxo-2,3-dihydro-1H-imidazol-1-yl)-2-(4-fluoro-3,5-dimethylphenyl)-2,4,5,7,8,9-hexahydro-4,8-epiminooxocino [5,4-c]pyrazole-10-carbonyl)-5-(tetrahydro-2H-pyran-4-yl)-1H-indol-1-yl)-2-methylcyclopropyl)-1,2,4-oxadiazol-5 (4H)-one], the EC50 is 129 nM.
In the case of `Cc1cc(-n2nc3c(c2-n2ccn(-c4ccc5nn(CCN6CCOCC6)cc5c4F)c2=O)[C@@H]2CC[C@H](C3)N2C(=O)c2cc3cc([C@H]4CCOC(C)(C)C4)ccc3n2[C@@]2(c3noc(=O)[nH]3)C[C@@H]2C)cc(C)c1F` [Compound 131, 3-[(1S,2S)-1-[5-[(4S)-2,2-dimethyltetrahydropyran-4-yl]-2-[(1S,8R)-4-(4-fluoro-3,5-dimethyl-phenyl)-3-[3-[4-fluoro-2-(2-morpholinoethyl)indazol-5-yl]-2-oxo-imidazol-1-yl]-4,5,11-triazatricyclo[6.2.1.02,6]undeca-2,5-diene-11-carbonyl]indol-1-yl]-2-methyl-cyclopropyl]-4H-1,2,4-oxadiazol-5-one] it was over 10000 nM.
`Cc1cc(-n2nc3c(c2-n2ccn(-c4ccc5c(cnn5C)c4F)c2=O)[C@@H]2CC[C@H](C3)N2C(=O)c2cc3nc(C4CCOC(C)(C)C4)ccc3n2[C@@]2(c3noc(=O)[nH]3)C[C@@H]2C)cc(C)c1F` (stereo partly drawn) [Compound 210, 3-[(1S,2S)-1-[5-(2,2-dimethyltetrahydropyran-4-yl)-2-[(1S,8R)-4-(4-fluoro-3,5-dimethyl-phenyl)-3-[3-(4-fluoro-1-methyl-indazol-5-yl)-2-oxo-imidazol-1-yl]-4,5,11-triazatricyclo[6.2.1.02,6]undeca-2,5-diene-11-carbonyl]pyrrolo[3,2-b]pyridin-1-yl]-2-methyl-cyclopropyl]-4H-1,2,4-oxadiazol-5-one]: the EC50 amounted to 959 nM.
As to `Cc1cc(-n2nc3c(c2-n2ccn(-c4ccc5c(cnn5C)c4F)c2=O)[C@@H]2CC[C@H](C3)N2C(=O)c2cc3ccc(C4CCOCC4)cc3nc2C2(c3noc(=O)[nH]3)CC2C)cc(C)c1F` (single isomer, unassigned) [Compound 237], the EC50 was determined as 123 nM.

In general, EC50 refers to the concentration at which the effect is half-maximal.
